What all share (assay type): in vivo
One experiment concerns Veronica persica. The experiment in a line: Post-emergence action against weeds (greenhouse, visual scoring): Veronica persica. As to conditions: scored 10 days after application. On the procedure: Seeds or rhizome pieces of monocotyledonous and dicotyledonous weeds were placed in sandy loam soil in plastic pots, covered with soil and cultivated in a greenhouse under good growth conditions. Three weeks after sowing, the test plants were treated at the 2- to 4-leaf stage. The compounds according to the invention, formulated as wettable powders or as emulsion concentrates, were sprayed onto the green parts of the plants in various dosages at a water application rate of 100 to 800 l/ha (converted). After the test plants had been left to stand in the greenhouse for 10 to 28 days under optimum growth conditions, the effect of the preparations was scored visually in comparison to untreated controls.
In an exemplary manner, tables 2-1 to 2-4 below show the improved control of the weed Veronica persica by application of the herbicide combinations according to the invention using the combination of the compound A-2 (sodium salt of 2-iodo-N-[(4-methoxy-6-methyl-1,3,5-triazin-2-yl)carbamoyl]benzenesulfonamide) and selected herbicides from group B, i.e. the herbicides amidosulfuron (=B7-1), ethoxysulfuron (=B7-9), flucarbazone-sodium (B8-1), and sulfosulfuran (B7-28), as an example.
Scoring was carried out 10 days after the application of the sprays according to the scheme below: […]

In a further experiment the test system is Polygonum convolvulus. The experiment in a line: Post-emergence action against weeds (greenhouse, visual scoring): Polygonum convolvulus. As to conditions: scored 11 days after application. On the procedure: (§1) Seeds or rhizome pieces of monocotyledonous and dicotyledonous weeds were placed in sandy loam soil in plastic pots, covered with soil and cultivated in a greenhouse under good growth conditions. Three weeks after sowing, the test plants were treated at the 2- to 4-leaf stage. The compounds according to the invention, formulated as wettable powders or as emulsion concentrates, were sprayed onto the green parts of the plants in various dosages at a water application rate of 100 to 800 l/ha (converted).
(§2) Scoring was carried out 11 days after the application of the sprays. In the case of the combination with B7-16 (table 1-15), the weed was Polygonum spp. and scoring was carried out 20 days after application.
(§3) The control of the weed was scored according to the scheme below.

A further experiment has as its system Polygonum spp. The experiment in a line: Post-emergence action against weeds (greenhouse, visual scoring): Polygonum spp. As to conditions: scored 20 days after application. On the procedure: as §1, §2, §3
Where [1] appears, read: 2.5 g of ai/ha, 0%=no control, 100%=complete control.

Values joined by “and” are separate entries in the source; they are usually repeats but may differ in a detail not shown here. Identical values can stand only once.

Regarding `CCS(=O)(=O)c1nc2ccccn2c1S(=O)(=O)NC(=O)Nc1nc(OC)cc(OC)n1` [Compound B7-28, sulfosulfuron], in the experiment with Veronica persica (7.5 g of ai/ha), the “Veronica persica Control in %” value is recorded as 30%. In the experiment on Polygonum convolvulus (7.5 g of ai/ha), the “Polygonum convolvulus Control in %” value was determined as 78%.

Turning to `CCCOc1nn(C(=O)[N-]S(=O)(=O)c2ccccc2C(=O)OC)c(=O)n1C.[Na+]` [Compound B8-2, propoxycarbazone-sodium], in the experiment on Polygonum convolvulus (10 g of ai/ha), the “Polygonum convolvulus Control in %” value is reported as 38%.

For `COC(=O)c1ccccc1S(=O)(=O)NC(=O)Nc1nc(C)nc(OC)n1` [Compound B7-18, metsulfuron-methyl], the “Polygonum convolvulus Control in %” value with Polygonum convolvulus (setting [1]) came out at 70%.

Consider `COc1nc(NC(=O)NS(=O)(=O)c2ccccc2C(F)(F)F)nc(C(F)(F)F)n1` [Compound B7-34, tritosulfuron], for which the “Polygonum convolvulus Control in %” value in the experiment with Polygonum convolvulus (10 g of ai/ha) is given as 58%.

On to `COC(=O)c1ccccc1S(=O)(=O)NC(=O)N(C)c1nc(C)nc(OC)n1` [Compound B7-31, tribenuron-methyl], for which the “Polygonum convolvulus Control in %” value in the experiment on Polygonum convolvulus (10 g of ai/ha) stood at 80%.

Consider `CCOc1ccccc1OS(=O)(=O)NC(=O)Nc1nc(OC)cc(OC)n1` [Compound B7-9, ethoxysulfuron], for which the “Veronica persica Control in %” value with Veronica persica (5 g of ai/ha) worked out at 8%.

As for `COc1nn(C(=O)[N-]S(=O)(=O)c2ccccc2OC(F)(F)F)c(=O)n1C.[Na+]` [Compound B8-1, flucarbazone-sodium], the “Veronica persica Control in %” value in the experiment with Veronica persica (10 g of ai/ha) was 15%. The “Polygonum convolvulus Control in %” value in the experiment on Polygonum convolvulus (10 g of ai/ha) is listed as 55%.

Consider `COC(=O)c1csc(C)c1S(=O)(=O)NC(=O)n1nc(OC)n(C)c1=O` [Compound B8-3, thiencarbazone-methyl], for which the “Polygonum convolvulus Control in %” value in the experiment with Polygonum convolvulus (1 g of ai/ha) was determined as 50%.

`CCCc1ccc2nc(Cl)c(S(=O)(=O)NC(=O)Nc3nc(OC)cc(OC)n3)n2n1` [Compound B7-38]: the “Polygonum convolvulus Control in %” value in the experiment on Polygonum convolvulus (30 g of ai/ha) worked out at 0%.

As to `COc1cc(OC)nc(NC(=O)NS(=O)(=O)c2cc(NC=O)ccc2C(=O)N(C)C)n1` [Compound B7-13, foramsulfuron], in the experiment on Polygonum convolvulus (10 g of ai/ha), the “Polygonum convolvulus Control in %” value was 15%.

Consider `COC(=O)c1sccc1S(=O)(=O)NC(=O)Nc1nc(C)nc(OC)n1` [Compound B7-29, thifensulfuron-methyl], for which the “Polygonum convolvulus Control in %” value in the experiment with Polygonum convolvulus (7.5 g of ai/ha) is 87%.

`COc1cc(OC)nc(NC(=O)NS(=O)(=O)N(C)S(C)(=O)=O)n1` [Compound B7-1, amidosulfuron]: the “Veronica persica Control in %” value in the experiment on Veronica persica (5 g of ai/ha) is 0%.

Turning to `COc1cc(OC)n2nc(NS(=O)(=O)c3c(C(F)(F)F)ccnc3OC)nc2n1` [Compound B9-7, pyroxsulam], the “Polygonum convolvulus Control in %” value in the experiment on Polygonum convolvulus (setting [1]) was 75%.

On to `COC(=O)c1ccc(I)cc1S(=O)(=O)[N-]C(=O)Nc1nc(C)nc(OC)n1.[Na+]` [Compound B7-16, iodosulfuron-methyl-sodium], for which the “Polygonum spp. Control in %” value in the experiment with Polygonum spp. (2 g of ai/ha) is recorded as 73%.

Take `COc1ncc(F)c2nc(S(=O)(=O)Nc3c(F)cccc3F)nn12` [Compound B9-3, florasulam]: in the experiment with Polygonum convolvulus (setting [1]), the “Polygonum convolvulus Control in %” value stood at 73%.

Take `COC(=O)c1ccc(CNS(C)(=O)=O)cc1S(=O)(=O)NC(=O)Nc1nc(OC)cc(OC)n1` [Compound B7-17, mesosulfuron-methyl]: the “Polygonum convolvulus Control in %” value with Polygonum convolvulus (5 g of ai/ha) came to 20%.

With `CCOC(=O)Nc1cccc(OC(=O)Nc2ccccc2)c1` [Compound B5-5, desmedipham], the “Polygonum convolvulus Control in %” value in the experiment on Polygonum convolvulus (50 g of ai/ha) was 28%.

Consider “sodium salt of 2-iodo-N-[(4-methoxy-6-methyl-1,3,5-triazin-2-yl)carbamoyl]benzenesulfonamide [Compound A-2]”, for which the “Veronica persica Control in %” value in the experiment on Veronica persica (2.5 g of ai/ha, 0%=No control, 100%=Complete control) is 10% and 0%. Also, the “Polygonum spp. Control in %” value in the experiment on Polygonum spp. (2.5 g of ai/ha) stood at 0%. Moreover, in the experiment on Polygonum convolvulus (setting [1]), the “Polygonum convolvulus Control in %” value is 10% and 0%.
